pIC50: −log10 of the molar value.
Assays:
[1] = target: T1, Activin receptor type-1-like (Homo sapiens, UniProt P37023); assay: Inhibition of ALK1 (unknown origin)
[2] = target: T1, Activin receptor type-1-like; assay: Inhibition of ALK1 in HMEC-1 assessed as translocation of pSMAD1/5
Activin receptor type-1 = Activin receptor type-1 (Homo sapiens, UniProt Q04771); assay: Inhibition of human recombinant GST-tagged ALK2 (amino acid 147 end) by FRET assay
TGF-beta receptor type-1 = TGF-beta receptor type-1 (Homo sapiens, UniProt P36897); assay: Inhibition of full length human N-terminal GST-tagged ALK5 expressed in baculovirus by FRET assay
[3] = target: Bone morphogenetic protein receptor type-1B (Homo sapiens, UniProt O00238); assay: Inhibition of human recombinant N-terminal GST-tagged ALK6 (149 amino acids end) expressed in baculovirus infected Sf9 insect cells by FRET assay
[4] = AUC in Han Wistar rat at 5 umol/kg; assay type: ADME, organism-based; settings: in vivo
[5] = Oral bioavailability in Han Wistar rat; assay type: ADME, organism-based; settings: in vivo
Mus musculus = assay: Free drug concentration in nude mouse at 50 mg/kg, po administered as single dose after 24 hrs; assay type: ADME, organism-based; settings: in vivo
[6] = Fraction unbound in mouse plasma; assay type: ADME, cell-free
[7] = target: Ephrin type-A receptor 2 (Homo sapiens) (UniProt P29317); assay: Inhibition of human recombinant EPHA2 receptor (591 to 976 residues) expressed in insect Sf21 cells at 1 uM using poly(Glu4-Tyr1) as substrate after 30 mins
[8] = target: MAP kinase-interacting serine/threonine-protein kinase 1 (Homo sapiens) (UniProt Q9BUB5); assay: Inhibition of human recombinant full-length MNK1 expressed in Escherichia coli at 1 uM using eIF4E as substrate after 30 mins
[9] = target: Tyrosine-protein kinase BTK (Homo sapiens) (UniProt Q06187); assay: Inhibition of BTK (unknown origin) at 1 uM
[10] = target: Fibroblast growth factor receptor 1 (Homo sapiens) (UniProt P11362); assay: Inhibition of human recombinant FGFR1 (400 to 820 residues) expressed in insect Sf21 cells at 1 uM using poly(Glu4-Tyr1) as substrate after 30 mins
[11] = target: Calcium/calmodulin-dependent protein kinase kinase 2 (Homo sapiens) (UniProt Q96RR4); assay: Inhibition of human recombinant full-length CAMKKbeta expressed in Escherichia coli at 1 uM using AKPKGNKDYHLQTCCGSLAYRRR as substrate
[12] = target: Maternal embryonic leucine zipper kinase (Homo sapiens) (UniProt Q14680); assay: Inhibition of human recombinant full-length MELK expressed in Escherichia coli at 1 uM using KKLNRTLSFAEPG as substrate after 30 mins
[13] = target: Inhibitor of nuclear factor kappa-B kinase subunit epsilon (Homo sapiens) (UniProt Q14164); assay: Inhibition of human recombinant full-length IKKepsilon expressed in insect Sf21 cells at 1 uM using MBP as substrate after 30 mins
[14] = target: Serine/threonine-protein kinase PAK 4 (Homo sapiens) (UniProt O96013); assay: Inhibition of human recombinant full-length PAK4 expressed in Escherichia coli at 1 uM using RRRLSFAEPG as substrate after 30 mins
[15] = target: Calcium/calmodulin-dependent protein kinase type 1D (Homo sapiens) (UniProt Q8IU85); assay: Inhibition of CAMK1d (unknown origin) at 1 uM
[16] = target: Mitogen-activated protein kinase 9 (Homo sapiens) (UniProt P45984); assay: Inhibition of MAPK9 (unknown origin) at 1 uM
[17] = target: Ribosomal protein S6 kinase alpha-5 (Homo sapiens) (UniProt O75582); assay: Inhibition of human recombinant full-length MSK1 at 1 uM after 30 mins
[18] = target: Serine/threonine-protein kinase pim-3 (Homo sapiens) (UniProt Q86V86); assay: Inhibition of human recombinant full-length PIM3 expressed in insect Sf21 cells at 1 uM using RSRHSSYPAGT as substrate after 30 mins
[19] = target: Serine/threonine-protein kinase Chk2 (Homo sapiens) (UniProt O96017); assay: Inhibition of human recombinant CHK2 (5 to 543 residues) expressed in Escherichia coli at 1 uM after 30 mins
[20] = target: Serine/threonine-protein kinase PLK1 (Homo sapiens) (UniProt P53350); assay: Inhibition of human recombinant full-length PLK1 expressed in insect Sf21 cells at 1 uM using ISDELMDATFADQEAKKK as substrate after 30 mins
[21] = target: SRSF protein kinase 1 (Homo sapiens) (UniProt Q96SB4); assay: Inhibition of human recombinant full-length SRPK1 expressed in Escherichia coli at 1 uM using RSRSRSRSRSRSRSR as substrate after 30 mins
[22] = target: Insulin-like growth factor 1 receptor (Homo sapiens) (UniProt P08069); assay: Inhibition of IGF1R (unknown origin) at 1 uM
[23] = target: Dual specificity tyrosine-phosphorylation-regulated kinase 3 (Homo sapiens) (UniProt O43781); assay: Inhibition of human recombinant full-length DYRK3 expressed in Escherichia coli at 1 uM using KKISGRLSPIMTEQ as substrate after 30 mins
[24] = target: Insulin receptor (Homo sapiens) (UniProt P06213); assay: Inhibition of INSR (unknown origin) at 1 uM
[25] = target: Casein kinase II (Homo sapiens) (UniProt P67870+P68400+P19784); assay: Inhibition of human recombinant full-length CK2 at 1 uM after 30 mins; assay type: protein-complex assay
[26] = target: Mitogen-activated protein kinase 14 (Homo sapiens) (UniProt Q16539); assay: Inhibition of human recombinant full-length p38alpha at 1 uM after 30 mins
[27] = target: Protein kinase C alpha type (Homo sapiens) (UniProt P17252); assay: Inhibition of human recombinant full-length PKCa expressed in insect Sf21 cells at 1 uM using histone H1 as substrate after 30 mins
[28] = target: Serine/threonine-protein kinase 26 (Homo sapiens) (UniProt Q9P289); assay: Inhibition of MST4 (unknown origin) at 1 uM
[29] = target: MAP kinase-activated protein kinase 2 (Homo sapiens) (UniProt P49137); assay: Inhibition of human recombinant […] MAPKAPK2 (46 to 400 residues) expressed in Escherichia coli at 1 uM after 30 mins
[30] = test system: RAC-beta serine/threonine-protein kinase (Homo sapiens), P31751 [S474D]; assay: Inhibition of human recombinant AKT2 S474D mutant (120 to 481 residues) expressed in insect Sf21 cells at 1 uM using GRPRTSSFAEGKK as substrate after 30 mins
[31] = target: Tyrosine-protein kinase SYK (Homo sapiens) (UniProt P43405); assay: Inhibition of SYK (unknown origin) at 1 uM
[32] = target: Ephrin type-B receptor 3 (Homo sapiens) (UniProt P54753); assay: Inhibition of EPHB3 (unknown origin) at 1 uM
[33] = target: 3-phosphoinositide-dependent protein kinase 1 (Homo sapiens) (UniProt O15530); assay: Inhibition of PDPK1 (unknown origin) at 1 uM

T1 sequence (P37023 whole entry): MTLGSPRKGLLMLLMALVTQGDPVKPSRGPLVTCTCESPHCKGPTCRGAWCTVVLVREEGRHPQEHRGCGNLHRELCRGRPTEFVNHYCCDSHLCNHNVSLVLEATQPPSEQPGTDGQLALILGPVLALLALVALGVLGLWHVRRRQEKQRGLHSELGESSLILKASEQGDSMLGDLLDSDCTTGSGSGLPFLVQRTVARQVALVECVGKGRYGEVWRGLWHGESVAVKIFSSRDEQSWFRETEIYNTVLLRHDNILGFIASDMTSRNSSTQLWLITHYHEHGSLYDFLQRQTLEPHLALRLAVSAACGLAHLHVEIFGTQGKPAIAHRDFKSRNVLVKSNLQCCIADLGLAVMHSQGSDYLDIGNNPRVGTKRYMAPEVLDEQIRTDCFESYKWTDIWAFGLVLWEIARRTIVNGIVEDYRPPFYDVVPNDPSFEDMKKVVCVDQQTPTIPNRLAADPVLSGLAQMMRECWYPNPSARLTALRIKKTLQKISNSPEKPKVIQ
Chain of Mitogen-activated protein kinase 14 (Homo sapiens) (Q16539 whole entry): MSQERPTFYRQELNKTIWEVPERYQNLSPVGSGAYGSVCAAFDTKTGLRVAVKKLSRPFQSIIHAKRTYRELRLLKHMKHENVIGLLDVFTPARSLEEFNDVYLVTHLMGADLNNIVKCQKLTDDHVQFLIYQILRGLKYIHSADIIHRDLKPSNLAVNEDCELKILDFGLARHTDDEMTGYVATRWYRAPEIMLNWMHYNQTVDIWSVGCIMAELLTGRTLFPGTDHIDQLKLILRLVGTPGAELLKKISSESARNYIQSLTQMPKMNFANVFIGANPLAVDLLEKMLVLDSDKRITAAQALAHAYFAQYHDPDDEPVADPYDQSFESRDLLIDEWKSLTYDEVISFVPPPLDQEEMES
Chain of Ephrin type-A receptor 2 (Homo sapiens) (P29317 whole entry, the tested form may be a part): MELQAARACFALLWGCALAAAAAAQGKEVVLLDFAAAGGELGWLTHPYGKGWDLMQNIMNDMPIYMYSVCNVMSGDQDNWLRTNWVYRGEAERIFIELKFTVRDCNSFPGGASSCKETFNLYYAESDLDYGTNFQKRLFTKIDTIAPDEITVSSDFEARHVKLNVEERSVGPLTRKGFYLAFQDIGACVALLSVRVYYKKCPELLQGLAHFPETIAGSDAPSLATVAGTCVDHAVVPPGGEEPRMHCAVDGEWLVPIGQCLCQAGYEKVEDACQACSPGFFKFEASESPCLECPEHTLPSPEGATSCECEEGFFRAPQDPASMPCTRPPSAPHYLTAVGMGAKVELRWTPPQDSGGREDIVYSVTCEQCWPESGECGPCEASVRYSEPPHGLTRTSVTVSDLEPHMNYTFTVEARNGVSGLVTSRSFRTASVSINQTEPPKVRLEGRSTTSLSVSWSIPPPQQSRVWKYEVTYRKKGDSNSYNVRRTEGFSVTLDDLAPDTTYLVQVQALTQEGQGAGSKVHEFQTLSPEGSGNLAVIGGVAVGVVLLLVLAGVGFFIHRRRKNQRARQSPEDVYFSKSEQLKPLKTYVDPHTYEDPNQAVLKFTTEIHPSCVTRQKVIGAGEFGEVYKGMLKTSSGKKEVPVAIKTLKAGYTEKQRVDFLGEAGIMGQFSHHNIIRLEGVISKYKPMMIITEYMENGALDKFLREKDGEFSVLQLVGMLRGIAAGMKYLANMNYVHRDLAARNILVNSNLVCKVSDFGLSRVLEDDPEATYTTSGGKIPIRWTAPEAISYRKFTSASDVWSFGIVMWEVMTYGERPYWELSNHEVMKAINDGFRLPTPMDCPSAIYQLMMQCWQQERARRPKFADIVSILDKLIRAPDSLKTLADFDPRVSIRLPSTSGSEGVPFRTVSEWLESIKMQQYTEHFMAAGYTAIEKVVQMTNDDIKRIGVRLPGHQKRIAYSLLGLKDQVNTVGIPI
Chain of Calcium/calmodulin-dependent protein kinase kinase 2 (Homo sapiens) (Q96RR4 2-588 limits assumed): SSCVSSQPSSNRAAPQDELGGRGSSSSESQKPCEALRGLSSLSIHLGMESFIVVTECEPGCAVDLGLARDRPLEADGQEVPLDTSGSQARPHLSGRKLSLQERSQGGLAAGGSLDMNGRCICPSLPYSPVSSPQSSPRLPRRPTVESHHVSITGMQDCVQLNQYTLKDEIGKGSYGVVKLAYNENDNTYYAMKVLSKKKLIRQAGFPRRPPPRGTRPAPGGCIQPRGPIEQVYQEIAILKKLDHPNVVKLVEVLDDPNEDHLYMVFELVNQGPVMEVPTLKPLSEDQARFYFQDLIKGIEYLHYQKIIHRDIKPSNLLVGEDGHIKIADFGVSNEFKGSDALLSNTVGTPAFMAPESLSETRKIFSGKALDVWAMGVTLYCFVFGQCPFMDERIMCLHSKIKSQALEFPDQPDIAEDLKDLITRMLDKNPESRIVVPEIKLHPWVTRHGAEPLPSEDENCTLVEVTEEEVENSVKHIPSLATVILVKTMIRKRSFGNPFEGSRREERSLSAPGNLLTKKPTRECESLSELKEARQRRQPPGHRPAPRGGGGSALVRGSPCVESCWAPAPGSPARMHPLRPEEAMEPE
Chain of Serine/threonine-protein kinase PLK1 (Homo sapiens) (P53350 whole entry): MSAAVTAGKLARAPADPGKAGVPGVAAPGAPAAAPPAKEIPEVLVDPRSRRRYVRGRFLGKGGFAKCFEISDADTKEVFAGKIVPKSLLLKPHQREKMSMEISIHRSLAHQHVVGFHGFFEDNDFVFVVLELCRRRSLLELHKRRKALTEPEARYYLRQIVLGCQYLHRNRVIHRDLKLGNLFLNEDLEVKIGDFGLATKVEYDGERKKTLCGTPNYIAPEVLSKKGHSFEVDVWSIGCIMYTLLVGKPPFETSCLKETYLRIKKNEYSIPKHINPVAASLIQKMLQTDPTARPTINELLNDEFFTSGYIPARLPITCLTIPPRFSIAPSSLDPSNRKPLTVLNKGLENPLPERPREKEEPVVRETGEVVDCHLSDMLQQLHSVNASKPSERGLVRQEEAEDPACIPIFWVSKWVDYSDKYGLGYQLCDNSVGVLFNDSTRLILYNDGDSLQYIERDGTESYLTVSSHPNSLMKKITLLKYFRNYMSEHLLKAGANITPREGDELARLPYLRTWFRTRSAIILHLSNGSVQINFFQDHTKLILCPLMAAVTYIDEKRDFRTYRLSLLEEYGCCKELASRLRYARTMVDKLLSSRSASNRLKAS
Chain of Serine/threonine-protein kinase 26 (Homo sapiens) (Q9P289 2-416 limits assumed): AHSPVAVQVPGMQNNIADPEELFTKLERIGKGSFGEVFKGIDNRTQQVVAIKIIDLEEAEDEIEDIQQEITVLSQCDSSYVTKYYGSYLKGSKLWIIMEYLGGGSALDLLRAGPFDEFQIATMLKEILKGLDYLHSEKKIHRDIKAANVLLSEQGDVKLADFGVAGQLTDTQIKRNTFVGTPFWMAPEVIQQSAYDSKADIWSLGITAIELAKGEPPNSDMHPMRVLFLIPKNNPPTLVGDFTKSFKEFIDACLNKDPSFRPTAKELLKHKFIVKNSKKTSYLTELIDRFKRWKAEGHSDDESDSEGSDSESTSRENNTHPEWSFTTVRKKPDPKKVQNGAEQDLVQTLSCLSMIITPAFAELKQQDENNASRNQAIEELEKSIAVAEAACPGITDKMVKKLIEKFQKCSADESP
Chain of MAP kinase-interacting serine/threonine-protein kinase 1 (Homo sapiens) (Q9BUB5 whole entry, looked up): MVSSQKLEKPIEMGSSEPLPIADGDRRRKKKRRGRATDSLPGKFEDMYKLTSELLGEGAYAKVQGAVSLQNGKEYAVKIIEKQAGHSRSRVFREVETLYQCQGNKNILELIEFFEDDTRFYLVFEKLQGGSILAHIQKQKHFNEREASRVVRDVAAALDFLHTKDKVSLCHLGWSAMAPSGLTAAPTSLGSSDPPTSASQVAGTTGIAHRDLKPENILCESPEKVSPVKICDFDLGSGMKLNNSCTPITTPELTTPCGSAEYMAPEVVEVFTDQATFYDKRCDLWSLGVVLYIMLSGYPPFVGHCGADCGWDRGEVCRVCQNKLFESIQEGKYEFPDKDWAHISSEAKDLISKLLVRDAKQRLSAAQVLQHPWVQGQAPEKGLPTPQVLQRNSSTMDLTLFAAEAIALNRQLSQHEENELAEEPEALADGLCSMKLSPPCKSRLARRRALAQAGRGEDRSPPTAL

In the case of O=C(Nc1cc(Nc2c(Cl)cnc3c2OCO3)ccn1)C1CC1, the pIC50 [1] was 8.40, the pIC50 [2] was 7.35 and the pIC50 (Activin receptor type-1) was 8.92. It also gave a pIC50 (TGF-beta receptor type-1) of 8.72, a pIC50 [3] of 5.89 and an AUC [4] of 3.8 µM·h. The bioavailability [5] was 38%, the “Drug uptake(free)” value (Mus musculus) was 0.37 µM and the fraction unbound [6] was 0.27. The inhibition [7] was > 50%, the inhibition [8] was < 80% and the inhibition [9] was < 80%. The inhibition [10] was < 80%, the inhibition [11] was < 80% and the inhibition [12] was < 80%. For the same molecule, the inhibition [13] was < 80%, the inhibition [14] was < 80% and the inhibition [15] was < 80%. For the same molecule, the inhibition [16] was < 80%, the inhibition [17] was < 80% and the inhibition [18] was < 80%. For the same molecule, the inhibition [19] was < 80%, the inhibition [20] was < 80% and the inhibition [21] was < 80%. For the same molecule, the inhibition [22] was < 80%, the inhibition [23] was < 80% and the inhibition [24] was < 80%. The inhibition [25] was < 80%, the inhibition [26] was < 80% and the inhibition [27] was < 80%. For the same molecule, the inhibition [28] was < 80%, the inhibition [29] was < 80% and the inhibition [30] was < 80%. The inhibition [31] was < 80%, the inhibition [32] was < 80% and the inhibition [33] was < 80%.
